Values joined by “and” are separate entries in the source; they are usually repeats but may differ in a detail not shown here. Equal values may be shown once. Inconclusive results and toxic doses are left out. No stated cut-off is given here; in the data, active means T/C of 150% or more; inactive means T/C below 125%.
Tested on: L1210 leukemia ip in BDF1 mice, survival T/C
Test: NCI In Vivo Anticancer Drug Screen. Data for tumor model L1210 Leukemia (intraperitoneal) in B6D2F1 (BDF1) mice
Conditions: endpoint: mean survival time, higher = longer survival
How it was run: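 Transplantable tumor model; survival measured in treated vs vehicle control mice. Value = treated/control.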

[1] = dose: 100.0 mg/kg/injection, schedule: Q01DX001 (ip), vehicle: saline with Tween-80
[2] = dose: 200.0 mg/kg/injection, schedule: Q01DX001 (ip), vehicle: saline with Tween-80
[3] = dose: 400.0 mg/kg/injection, schedule: Q01DX001 (ip), vehicle: saline with Tween-80
[4] = dose: 100.0 mg/kg/injection, schedule: Q04DX003 (ip), vehicle: saline with Tween-80
[5] = dose: 200.0 mg/kg/injection, schedule: Q04DX003 (ip), vehicle: saline with Tween-80
[6] = dose: 400.0 mg/kg/injection, schedule: Q04DX003 (ip), vehicle: saline with Tween-80
[7] = dose: 100.0 mg/kg/injection, schedule: Q01DX001 (ip), vehicle: saline
[8] = dose: 200.0 mg/kg/injection, schedule: Q01DX001 (ip), vehicle: saline
[9] = dose: 400.0 mg/kg/injection, schedule: Q01DX001 (ip), vehicle: saline
[10] = dose: 50.0 mg/kg/injection, schedule: Q01DX009 (ip), vehicle: Klucel (hydroxypropylcellulose) (HPC)
[11] = dose: 100.0 mg/kg/injection, schedule: Q01DX009 (ip), vehicle: Klucel (hydroxypropylcellulose) (HPC)
[12] = dose: 100.0 mg/kg/injection, schedule: Q04DX003 (ip), vehicle: Klucel (hydroxypropylcellulose) (HPC)
[13] = dose: 200.0 mg/kg/injection, schedule: Q01DX009 (ip), vehicle: Klucel (hydroxypropylcellulose) (HPC)
[14] = dose: 200.0 mg/kg/injection, schedule: Q04DX003 (ip), vehicle: Klucel (hydroxypropylcellulose) (HPC)
[15] = dose: 100.0 mg/kg/injection, schedule: Q01DX001 (ip), vehicle: carboxymethylcellulose (CMC)
[16] = dose: 200.0 mg/kg/injection, schedule: Q01DX001 (ip), vehicle: carboxymethylcellulose (CMC)
[17] = dose: 400.0 mg/kg/injection, schedule: Q01DX001 (ip), vehicle: carboxymethylcellulose (CMC)
[18] = dose: 100.0 mg/kg/injection, schedule: Q01DX009 (ip), vehicle: saline
[19] = dose: 200.0 mg/kg/injection, schedule: Q01DX009 (ip), vehicle: saline
[20] = dose: 400.0 mg/kg/injection, schedule: Q04DX003 (ip), vehicle: Klucel (hydroxypropylcellulose) (HPC)
[21] = dose: 100.0 mg/kg/injection, schedule: Q04DX003 (ip), vehicle: saline
[22] = dose: 200.0 mg/kg/injection, schedule: Q04DX003 (ip), vehicle: saline
[23] = dose: 400.0 mg/kg/injection, schedule: Q04DX003 (ip), vehicle: saline

Measured: T/C

CSc1ccc(NC(=O)C(C)Oc2ccccc2)cc1 (configuration not stated)
inactive: dose: 50.0 mg/kg/injection, schedule: Q01DX001 (ip), vehicle: saline with Tween-80 95 % of control | [1] 87 % of control and 92 % of control | dose: 100.0 mg/kg/injection, schedule: Q01DX009 (ip), vehicle: saline with Tween-80 97 % of control and 102 % of control | dose: 100.0 mg/kg/injection, schedule: Q04DX002 (ip), vehicle: saline with Tween-80 94 % of control and 96 % of control | [2] 87 % of control | dose: 200.0 mg/kg/injection, schedule: Q01DX009 (ip), vehicle: saline with Tween-80 93 % of control and 102 % of control | dose: 200.0 mg/kg/injection, schedule: Q04DX002 (ip), vehicle: saline with Tween-80 96 % of control and 105 % of control | [3] 87 % of control and 90 % of control | dose: 400.0 mg/kg/injection, schedule: Q01DX009 (ip), vehicle: saline with Tween-80 95 % of control and 98 % of control | dose: 400.0 mg/kg/injection, schedule: Q04DX002 (ip), vehicle: saline with Tween-80 96 % of control and 101 % of control

Oc1cccc2cccnc12.[Cu+].[O-]c1cccc2cccnc12
inactive: dose: 2.5 mg/kg/injection, schedule: Q01DX009 (ip), vehicle: saline 97 % of control | dose: 2.5 mg/kg/injection, schedule: Q04DX003 (ip), vehicle: alcohol 98 % of control | dose: 5.0 mg/kg/injection, schedule: Q01DX009 (ip), vehicle: saline 108 % of control | dose: 5.0 mg/kg/injection, schedule: Q04DX003 (ip), vehicle: alcohol 112 % of control | dose: 10.0 mg/kg/injection, schedule: Q01DX009 (ip), vehicle: saline 98 % of control | dose: 10.0 mg/kg/injection, schedule: Q04DX003 (ip), vehicle: alcohol 104 % of control

Nc1nc(N)c(-c2ccc(Cl)cc2)c(CNc2ccc([N+](=O)[O-])cc2)n1
inactive: [4] 109 % of control | [5] 95 % of control | [6] 95 % of control

NC(=O)CCCCCCCCC(N)=O
inactive: [7] 98 % of control | [8] 98 % of control | [9] 92 % of control

COc1ccc(C)cc1NC(=S)NC(=O)c1cccc2ccccc12
inactive: [10] 93 % of control | [11] 87 % of control | [12] 95 % of control | [13] 88 % of control | [14] 94 % of control | dose: 300.0 mg/kg/injection, schedule: Q01DX009 (ip), vehicle: Klucel (hydroxypropylcellulose) (HPC) 104 % of control and 87 % of control

CC(=O)CCNc1ccc(O)c2c1C(=O)c1ccccc1C2=O
inactive: [15] 96 % of control | [16] 89 % of control | [17] 94 % of control

CC1CN=C(c2ccc(NC(=O)Nc3ccc(NC(=O)c4ccc(C5=NCC(C)N5)cc4)cc3)cc2)N1 (configuration not stated)
inactive: dose: 62.5 mg/kg/injection, schedule: Q01DX Z (oral), vehicle: water 97 % of control | dose: 125.0 mg/kg/injection, schedule: Q01DX Z (oral), vehicle: water 101 % of control | dose: 250.0 mg/kg/injection, schedule: Q01DX Z (oral), vehicle: water 100 % of control | dose: 500.0 mg/kg/injection, schedule: Q01DX Z (oral), vehicle: water 105 % of control

CC(=O)OCCc1ccc2c(c1)OCO2
inactive: dose: 100.0 mg/kg/injection, schedule: Q04DX002 (ip), vehicle: Klucel (hydroxypropylcellulose) (HPC) 97 % of control | dose: 200.0 mg/kg/injection, schedule: Q04DX002 (ip), vehicle: Klucel (hydroxypropylcellulose) (HPC) 112 % of control | dose: 400.0 mg/kg/injection, schedule: Q04DX002 (ip), vehicle: Klucel (hydroxypropylcellulose) (HPC) 115 % of control

O=C(O)C1CCCC1C(=O)O (configuration not stated)
inactive: dose: 75.0 mg/kg/injection, schedule: Q04DX003 (ip), vehicle: saline 94 % of control | dose: 150.0 mg/kg/injection, schedule: Q04DX003 (ip), vehicle: saline 102 % of control | dose: 300.0 mg/kg/injection, schedule: Q04DX003 (ip), vehicle: saline 95 % of control

Cc1cc2c(C)nc3ccccc3n2c1O
inactive: [10] 103 % of control | [11] 103 % of control | [13] 98 % of control

COC(=O)c1ccc(N=Nc2ncc(CCNC(=O)C(F)(F)F)[nH]2)cc1
inactive: [1] 97 % of control | [2] 96 % of control | [3] 111 % of control

Cc1nc(-c2ccc(N=Cc3ccc(N(CCCl)CCCl)cc3)cc2)cs1
inactive: dose: 50.0 mg/kg/injection, schedule: Q01DX009 (ip), vehicle: saline 101 % of control | [7] 101 % of control | [18] 104 % of control | [8] 90 % of control | [19] 98 % of control | [9] 89 % of control | dose: 400.0 mg/kg/injection, schedule: Q01DX009 (ip), vehicle: saline 102 % of control

OCCCCCCCCCCCCO
inactive: [4] 105 % of control | [5] 94 % of control | [6] 103 % of control

Nc1cc([N+](=O)[O-])ccc1Cl
inactive: [11] 99 % of control | [12] 102 % of control | [13] 101 % of control | [14] 102 % of control | [20] 103 % of control

C1CC2(CCN1)SSC1(CCNCC1)S2
inactive: [18] 113 % of control | [21] 114 % of control | [19] 103 % of control | [22] 112 % of control | [23] 96 % of control

Cc1ccc(N=NN(C)CC#N)cc1
inactive: dose: 25.0 mg/kg/injection, schedule: Q04DX003 (ip), vehicle: other 96 % of control | dose: 50.0 mg/kg/injection, schedule: Q04DX003 (ip), vehicle: other 96 % of control | dose: 100.0 mg/kg/injection, schedule: Q04DX003 (ip), vehicle: other 93 % of control and 105 % of control

OCCCCCc1ccccc1
inactive: dose: 100.0 mg/kg/injection, schedule: Q01DX009 (ip), vehicle: other 105 % of control | [21] 92 % of control | dose: 200.0 mg/kg/injection, schedule: Q01DX009 (ip), vehicle: other 102 % of control | [22] 101 % of control | dose: 400.0 mg/kg/injection, schedule: Q01DX009 (ip), vehicle: other 102 % of control | [23] 90 % of control

Nc1nc2nc(N=Nc3ccc(N=Nc4nc5nc(N)[nH]c(=O)c5[nH]4)cc3)[nH]c2c(=O)[nH]1
inactive: [12] 91 % of control | [14] 99 % of control | [20] 88 % of control

O=C(O)c1ccccc1C(=O)OC1CCCC2CCCC21 (configuration not stated)
inactive: [15] 95 % of control and 96 % of control | [16] 101 % of control and 98 % of control | [17] 90 % of control and 98 % of control

Cc1ncc(C(=O)O)s1
inactive: [12] 90 % of control | [14] 95 % of control | [20] 98 % of control

O=C1OC(=O)c2cscc21
inactive: [4] 88 % of control | [5] 94 % of control

— PubChem BioAssay AID248 (DTP/NCI, 2004)
